From patent US12571052B2, “Immunomodulatory RNA” (THE TRUSTEES OF THE UNIVERSITY OF PENNSYLVANIA, priority 2017, dated 2026)

Tests used:
1833 breast cancer cells = assay: ISG expression in breast cancer cells after RNA transfection (qRT-PCR); type: cell-based, Human
Experimental: Gene Targeting and Expression. Gene knockdown by siRNA was completed using SMARTPool siRNAs (Thermo) and transfected using 20 nM siRNA and RNAiMax (Invitrogen) transfection reagent. For stable knockdowns, shRNAs were cloned into the pGIPZ vector and transduced by virus using pCMV-VSV-G and pHR8.2AR envelope and packaging vectors in HEK293T cells. Transduced cells were selected using 1-2 ug/ml of puromycin. Wild-type and K858A/K861A binding mutant of RIG-I was cloned into the pOZ-N vector. Transduced cells were then selected with IL-2 receptor magnetic beads and expression was confirmed by Western blot for FLAG, HA, and RIG-I. RIG-I restoration was functionally confirmed by RIG-I pathway activation in response to Sendai virus infection. SRP9 and SRP14 were transiently transfected with pGFH-9 (Addgene plasmid #39538) and pGFH-14c (Addgene plasmid #39541), both gifts from Katharina Strub. Gene knockout by CRISPR was accomplished using pSpCas9 (BB)-2A-GFP (PX458) (Addgene plasmid #48138). RIG-I was knocked out utilizing the protocol described (Ran et al. (2013) Nat. Protoc. 8, 2281-2308). In brief, two distinct guide RNAs cloned into the pSpCas9 (BB)-2A-GFP backbone were transiently transfected into breast cancer cells. After 48 hours, single cells were sorted into 96 well single cell clones based on highest GFP expression. Clones were confirmed to have no RIG-I expression by immunoblot and pooled. RIG-I KO in the pooled clones were functionally confirmed by RIG-I pathway activation in response to Sendai virus infection.
In Vitro Transcription. In vitro transcription was performed using of PCR amplified cDNA templates that contained Hepatitis Delta Virus Ribozyme to ensure homogenous 3′ ends of the transcripts of interest (Avis et al. (2012) Methods Mol. Biol. 941, 83-97). In vitro transcription was completed with the MEGAshortscript T7 Transcription Kit (ThermoFisher) according to manufacturer's instructions. RNA was DNase treated and phenol/chloroform purified. After thermocycling to ensure ribozyme cleavage, correct size transcripts were gel purified. […]

[1] = tested on: myeloid/dendritic cells in the spleen; assay: Spleen myeloid/dendritic cell activation after intravenous injection; type: in vivo, mice
B16-F10 tumor cells [2] = assay: B16-F10/MEF co-implantation, tumor growth and survival under checkpoint blockade; type: in vivo, C57BL/6 mice; conditions: MYC activated MEFs vs MEFs co-expressing SRP9/14; anti-CTLA-4 or anti-PD-1
Experimental: Wild type (WT) C57BL/6 mice were injected with 5×10^4 B16-F10 tumor cells subcutaneously in the flank with 5×10^4 MYC activated mouse embryonic fibroblasts (MEFs) or MYC activated MEFs co-expressing SRP9/14. MYC activation is inducible with 4-OHT and results in the secretion of exosomes containing unshielded 7SL1 RNA, while co-expression of SRP9/14 ensures the 7SL1 RNA remains relatively shielded, allowing measurement of the stimulatory capacity specifically of the unshielded form (Nabet B Y, et al. Cell. 2017; 170 (2): 352-366.e13). Mice were subsequently treated with the anti-CTLA-4 or anti-PD-1 antibody (or not), and then tumor growth was monitored by caliper. Endpoint criterion was considered a tumor measurement of 1.5 cm in any direction.
Tumors were implanted as described in FIGS. 25A-25B and treated with CSF1R inhibitor BLZ945 (Novartis) every 2 days for 2 weeks starting at day 0 to prevent M2 polarization of infiltrating myeloid cells. Mice were additionally treated with anti-CTLA4 (FIG. 27A) or anti-CTLA4 and anti-PD1 (FIGS. 27B and 27C) on days 5, 8, and 11. Tumor growth was monitored by caliper.

B16-F10 tumor cells [3] = assay: B16-F10/MEF co-implantation, tumor immune populations by flow cytometry; type: in vivo, C57BL/6 mice; conditions: for myeloid infiltration (macrophages, MDSCs) into the tumor microenvironment: tumors harvested 13 days later
Experimental: Mice were implanted with tumors as described FIGS. 25A-25B. Tumors were harvested 13 days later and assessed for infiltration of macrophages or myeloid derived suppressor cells (MDSCs). Macrophages are considered Lin−, F4/80+, and CD11b+ cells. MDSCs are considered Lin−, F4/80−, CD11c−, CD11b+, and Ly6C+ cells. Tumors were treated with anti-CTLA4 blocking antibody (FIG. 26D) as described in FIGS. 25A and 25B, and tumors were harvested at d15 to measure M2 polarization of macrophages as marked by CD206.
Furthermore, mice were implanted with the same tumors and subsequently treated with the CSF1R inhibitor BLZ945. Polarization of macrophages and frequency of CD103+DCs were tested.
In addition, mice were implanted with tumors and treated with anti-CTLA4+/−CSF1Ri BLZ945. Tumors were harvested 13 days later and immune populations were assessed using an unbiased clustering of flow cytometry data.
Mice were implanted with B16-F10 tumor cells mixed 1:1 with MEFs or MEFs co-expressing SRP9/14 (FIG. 35B). Tumors were harvested 2 weeks post-injection and analyzed for immune cell populations. Unshielded RN7SL1 increased the frequency of dendritic cells, the percentage of CD103+ dendritic cells, the percentage of CD69+CD8+ T cells, and the percentage of PD1+CD8+ T cells in tumors (FIG. 35C). […] Without wishing to be bound by theory, a CSF1R inhibitor blocks M2 polarization and may synergize with unshielded RN7SL1.

[4] = tumors harvested 2 weeks post-injection

RN7SL1: Human RN7SL1 (7SL, srpRNA) RNA, 5'ppp, in vitro transcribed or secreted unshielded in exosomes; SEQ ID NO: 2
ISG induction after transfection (1833 breast cancer cells; 1833 cells, RIG-I wild type): induces ISGs in breast cancer cells specifically in a RIG-I-dependent manner
ISG induction after transfection (1833 breast cancer cells; RIG-I KO cells with re-expression of WT RIG-I): restored antiviral signaling
ISG induction after transfection (1833 breast cancer cells; alkaline phosphatase treatment prior to transfection): abolished ISG induction
myeloid/dendritic cell maturation and activation (MHCII+ and CD86+) [1]: promote immune cell activation in the neutral immune environment of mouse spleens
response to checkpoint blockade therapy (B16-F10 tumor cells [2]): does not significantly impact response to anti-CTLA-4 or anti-PD-1 therapy
T cell activation (B16-F10 tumor cells [3]; dependent on MyD88): enhanced T cell activation
percentage of CD69+CD8+ T cells (B16-F10 tumor cells [3]; [4]): increased
percentage of CD103+ dendritic cells (B16-F10 tumor cells [3]; [4]): increased
percentage of PD1+CD8+ T cells (B16-F10 tumor cells [3]; [4]): increased
percentages of macrophages and MDSCs in CD45+ cells (B16-F10 tumor cells [3]; [4]): also increased
frequency of dendritic cells in tumors (B16-F10 tumor cells [3]; tumors harvested 2 weeks post-injection, listed as Unshielded RN7SL1): increased
frequency of dendritic cells in tumors (B16-F10 tumor cells [3]; tumors harvested 2 weeks post-injection, listed as unshielded 7SL1): increased the frequency of DCs in vivo
myeloid infiltration (macrophages, MDSCs) into the tumor microenvironment (B16-F10 tumor cells [3]): triggered the infiltration of macrophages and MDSCs into the tumor microenvironment
myeloid infiltration (macrophages, MDSCs) into the tumor microenvironment (B16-F10 tumor cells [3]; listed as unshielded 7SL): drives myeloid infiltration into the tumor microenvironment
